Data published in US9629921B2, “Smart pro-drugs of serine protease inhibitors” (Trustees of Tufts College, priority 2002, dated 2017).
Where “and” joins values, the source holds several entries; their conditions need not be identical. Equal entries are not always repeated. Where two headings read alike, the source gives them in different places.

Assays:
DPP IV = DPP IV (Homo sapiens, UniProt P27487); test: In vitro DPP IV enzyme inhibition assay; inhibitors incubated at pH 2 or pH 8, then added to enzyme assay solution at pH 8.0; type: biochemical
Description: Inhibitors were incubated overnight in pH 2 or pH 8 solutions and then added directly to an enzyme assay solution at pH 8.0.
It is important to note that the x-axis in FIG. 3 refers to the concentration of the SPI, not the concentration of the released Xaa-boroPro.

Serum DPP IV [1] = biological target: T1, Serum DPP IV (Rattus norvegicus, UniProt P14740); test: Serum DPP IV activity in rats as a function of time after dosing; type: in vivo; conditions: rats, single oral dose of 0.025 mg/kg, average of four rats (FIG. 8)
T1 construct: Serum DPP IV activity in rats as a function of time; from tissue; host or cells: rat serum
Description: FIG. 8 Serum DPP IV activity in rats as a function of time following a single oral dose of 0.025 mg/kg. Each bar represents the average of four rats.
Each bar represents the average of four rats.

serum DPP IV [2] = biological target: serum DPP IV (Mus musculus, UniProt P28843); test: In vivo inhibition of serum DPP IV in db/db mice after oral dose; conditions: mouse, iv, Diabetic-control = 100.00; for activity at 0.0025 mg/kg: read-out: In vivo inhibition of serum DPP IV, 0.0025 mg/kg; for activity at 0.01 mg/kg: read-out: In vivo inhibition of serum DPP IV, 0.01 mg/kg; for activity at 0.025 mg/kg: read-out: In vivo inhibition of serum DPP IV, 0.025 mg/kg
male Sprague-Dawley rats = test: Example 10: clinical signs and mortality after single oral administration in male rats; conditions: for Clinical Observation: one line per animal, wrapped cell 'Redness of ears' continues 'and paws';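 as to all read-outs here: test articles given by mouth, formulated in deionized Type I water as vehicle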
[3] = pH 2, ten minutes, read-out: IC50 Values at Ten Minutes pH 2
[4] = pH 8, ten minutes, read-out: IC50 Values at Ten Minutes pH 8
[5] = pH 2, read-out: Tetrapeptide Prodrugs (IC50) pH 2
[6] = pH 8, read-out: Tetrapeptide Prodrugs (IC50) pH 8

Sequence of serum DPP IV (P28843 37-760 limits assumed): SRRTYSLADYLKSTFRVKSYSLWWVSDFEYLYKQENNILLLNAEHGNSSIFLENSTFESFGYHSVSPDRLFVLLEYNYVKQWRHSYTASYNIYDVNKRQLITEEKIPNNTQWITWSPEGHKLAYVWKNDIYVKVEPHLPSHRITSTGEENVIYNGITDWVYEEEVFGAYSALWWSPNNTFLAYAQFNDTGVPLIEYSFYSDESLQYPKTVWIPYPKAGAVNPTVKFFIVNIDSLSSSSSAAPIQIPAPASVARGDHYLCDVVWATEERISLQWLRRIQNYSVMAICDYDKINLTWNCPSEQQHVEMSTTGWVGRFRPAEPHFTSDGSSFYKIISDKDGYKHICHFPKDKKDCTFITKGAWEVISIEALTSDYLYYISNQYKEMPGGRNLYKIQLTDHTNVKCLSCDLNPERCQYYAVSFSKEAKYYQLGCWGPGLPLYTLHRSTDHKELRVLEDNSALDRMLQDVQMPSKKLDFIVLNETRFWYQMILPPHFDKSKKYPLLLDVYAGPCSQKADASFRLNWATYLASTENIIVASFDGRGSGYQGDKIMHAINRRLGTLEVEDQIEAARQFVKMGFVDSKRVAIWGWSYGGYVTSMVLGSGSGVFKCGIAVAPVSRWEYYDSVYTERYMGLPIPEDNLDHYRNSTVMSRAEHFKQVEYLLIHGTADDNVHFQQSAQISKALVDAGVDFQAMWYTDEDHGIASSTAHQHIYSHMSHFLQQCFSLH
Sequence of DPP IV (P27487 whole entry, species assumed): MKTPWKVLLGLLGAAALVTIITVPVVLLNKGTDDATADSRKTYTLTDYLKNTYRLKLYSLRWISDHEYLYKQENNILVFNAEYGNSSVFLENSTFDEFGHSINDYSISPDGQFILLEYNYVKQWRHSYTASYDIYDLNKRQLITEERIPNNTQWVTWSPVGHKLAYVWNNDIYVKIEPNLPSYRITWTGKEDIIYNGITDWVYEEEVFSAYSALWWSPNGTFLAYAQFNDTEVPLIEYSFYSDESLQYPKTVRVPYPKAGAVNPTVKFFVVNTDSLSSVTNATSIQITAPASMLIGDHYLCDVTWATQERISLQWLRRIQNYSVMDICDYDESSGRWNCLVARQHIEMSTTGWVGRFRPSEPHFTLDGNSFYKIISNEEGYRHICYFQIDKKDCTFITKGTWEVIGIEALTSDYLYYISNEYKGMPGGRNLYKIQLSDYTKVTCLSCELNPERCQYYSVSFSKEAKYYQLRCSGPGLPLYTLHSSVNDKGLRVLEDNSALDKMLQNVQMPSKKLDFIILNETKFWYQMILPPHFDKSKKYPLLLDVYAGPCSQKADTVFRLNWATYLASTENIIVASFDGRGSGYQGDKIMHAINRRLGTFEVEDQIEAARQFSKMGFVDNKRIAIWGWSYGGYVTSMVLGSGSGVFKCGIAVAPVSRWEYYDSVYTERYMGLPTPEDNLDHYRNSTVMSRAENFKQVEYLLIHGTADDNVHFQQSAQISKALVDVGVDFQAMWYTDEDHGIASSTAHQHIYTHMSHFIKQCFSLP
T1 sequence (P14740 37-767 limits assumed): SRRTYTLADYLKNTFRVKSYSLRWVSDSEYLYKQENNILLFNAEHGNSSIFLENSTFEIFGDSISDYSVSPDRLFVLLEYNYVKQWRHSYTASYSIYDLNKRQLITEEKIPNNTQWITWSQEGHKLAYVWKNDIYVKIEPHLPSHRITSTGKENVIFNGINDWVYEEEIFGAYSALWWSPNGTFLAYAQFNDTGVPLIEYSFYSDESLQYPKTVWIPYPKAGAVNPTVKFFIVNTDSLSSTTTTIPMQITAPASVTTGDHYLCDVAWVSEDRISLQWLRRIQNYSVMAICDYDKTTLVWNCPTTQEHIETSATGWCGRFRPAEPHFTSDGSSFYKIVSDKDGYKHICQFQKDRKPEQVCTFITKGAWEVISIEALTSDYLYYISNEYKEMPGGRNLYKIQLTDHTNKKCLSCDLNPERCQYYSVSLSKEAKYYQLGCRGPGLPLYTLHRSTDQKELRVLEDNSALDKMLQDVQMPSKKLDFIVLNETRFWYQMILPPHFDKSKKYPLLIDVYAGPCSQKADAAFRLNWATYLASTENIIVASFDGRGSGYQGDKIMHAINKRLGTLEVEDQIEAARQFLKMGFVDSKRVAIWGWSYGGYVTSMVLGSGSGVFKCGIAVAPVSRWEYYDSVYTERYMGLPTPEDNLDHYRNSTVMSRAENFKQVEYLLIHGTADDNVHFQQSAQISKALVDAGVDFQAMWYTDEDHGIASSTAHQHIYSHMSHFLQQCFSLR

IC50 (DPP IV; [3]) [nM]	IC50 (DPP IV; [4]) [nM]	Structure (SMILES)	further results
2000	30000	CC(NC(=O)C(N)C1CCCCC1)C(=O)N1CCCC1C(=O)N1CCCC1B(O)O (stereo not shown) [ChgAlaProboroPro]	–
190	360	CC(NC(=O)C(N)C1CCCCC1)C(=O)NC(C(=O)N1CCCC1B(O)O)C(C)C (stereo not shown) [ChgAlaValboroPro]	IC50 (DPP IV; [5]): 190 nM; IC50 (DPP IV; [6]): 360 nM
15	16	CCC(NC(=O)C1CCN1C(=O)C(N)C1CCCCC1)C(=O)N1CCCC1B(O)O (stereo not shown) [ChgAzeEtgboroPro]	–
17	25	CCC(NC(=O)C1CC(O)CN1C(=O)C(N)C1CCCCC1)C(=O)N1CCCC1B(O)O (stereo not shown) [ChgHypEtgboroPro]	–
1500	8000	CC(C)(C)[C@H](NC(=O)[C@@H]1CCCN1C(=O)[C@@H](N)C1CCCCC1)C(=O)N1CCC[C@H]1B(O)O [ChgProBugboroPro]	–
180	170	CC(NC(=O)C(NC(=O)C1CCCN1C(=O)C(N)C1CCCCC1)C1CCCCC1)B(O)O (stereo not shown) [ChgProChgboroAla]	IC50 (DPP IV; [5]): 180 nM; IC50 (DPP IV; [6]): 170 nM
14	14	NC(C(=O)N1CCCC1C(=O)NC(C(=O)N1CCCC1B(O)O)C1CCCCC1)C1CCCCC1 (stereo not shown) [ChgProChgboroPro]	–

Further lines, the compound ahead of its results:

Structure (SMILES)	IC50 (DPP IV; [3]) [nM]	IC50 (DPP IV; [4]) [nM]	further results
CC(NC(=O)C(C)(C)N)C(=O)NC(C(=O)N1CCCC1B(O)O)C(C)C (stereo not shown) [AibAlaValboroPro]	2000	–	–
CC(N)C(=O)NC(C)C(=O)N1CCCC1C(=O)N1CCCC1B(O)O (stereo not shown) [AlaAlaProboroPro]	3000	–	–
CC(N)C(=O)NC(C)C(=O)NC(C(=O)N1CCCC1B(O)O)C(C)C (stereo not shown) [AlaAlaValboroPro]	2000	25000	–
CC(N)C(=O)N1CCCC1C(=O)N1CCCC1C(=O)N1CCCC1B(O)O (stereo not shown) [AlaProProboroPro]	8300	–	–
CC(N)C(=O)N1CCCC1C(=O)NC(C(=O)N1CCCC1B(O)O)C(C)C (stereo not shown) [AlaProValboroPro]	20	21	IC50 (DPP IV; [5]): 20 nM; IC50 (DPP IV; [6]): 21 nM
CCC(NC(=O)C(C)NC(=O)C(N)C1CCCCC1)C(=O)NC(C)B(O)O (stereo not shown) [ChgAlaEtgboroAla]	1300	2500	–
CCC(NC(=O)C(C)NC(=O)C(N)C1CCCCC1)C(=O)N1CCCC1B(O)O (stereo not shown) [ChgAlaEtgboroPro]	600	802	–
CC(NC(=O)C1CCCN1C(=O)C(N)C1CCCCC1)C(=O)N1CCCC1B(O)O (stereo not shown) [ChgProAlaboroPro, Cyclohexylglycine-Proline-Ala-boroProline]	17	17	IC50 (DPP IV; [5]): 19 nM; IC50 (DPP IV; [6]): 15 nM; Inhibition of serum DPP IV activity compared with Val-boroPro (Serum DPP IV [1]): much less orally active; activity at 0.0025 mg/kg (serum DPP IV [2]; 1 hr Post Rx-Glucose): 110%; activity at 0.0025 mg/kg (serum DPP IV [2]; 4 hrs Post Rx-Glucose): 99.5%; activity at 0.01 mg/kg (serum DPP IV [2]; 1 hr Post Rx-Glucose): 100%; activity at 0.01 mg/kg (serum DPP IV [2]; 4 hrs Post Rx-Glucose): 77.5%; activity at 0.025 mg/kg (serum DPP IV [2]; 1 hr Post Rx-Glucose): 111%; activity at 0.025 mg/kg (serum DPP IV [2]; 4 hrs Post Rx-Glucose): 58.9%; Clinical Observation (male Sprague-Dawley rats; 0.5 mg/kg ALA-PRO boronic dose equivalents): None; Clinical Observation (male Sprague-Dawley rats; 2.5 mg/kg ALA-PRO boronic dose equivalents): None; Approximate Time of Sacrifice or Time Animal was Found Dead (hr post-dose) (male Sprague-Dawley rats; 10.0 mg/kg ALA-PRO boronic dose equivalents): ~5 h (sacrificed); Clinical Observation (male Sprague-Dawley rats; 10.0 mg/kg ALA-PRO boronic dose equivalents, listed as L-2-Chg-PRO-ALA-PRO boronic acid): Redness of ears and Decreased activity and labored breathing and None (2×)
